Patent publication US10323045B2, “Thienopyrimidine derivatives as NIK inhibitors” (Janssen Pharmaceutica NV, priority 2014, dated 2019)

Experiments:
[1] = tested on: JJN-3 cells; assay: Antiproliferative activity on JJN-3 cells (CellTiter-Glo); format: cell-based; conditions: Homo sapiens, 72 hr of treatment, averaged values
Experimental: (§1) Determination of Antiproliferative Activity on LP-1, L-363 and JJN-3 Cells
(§2) All compounds tested were dissolved in DMSO and further dilutions were made in culture medium. Final DMSO concentration was 0.3% (v/v) in cell proliferation assays.
(§3) Viability was assessed using CellTiter-Glo cell viability assay kit (Promega). The human LP-1, L-363 and JJN-3 cells (DSMZ) were cultured in RPMI 1640 medium supplemented with 2 mM L-glutamine, and 10% fetal calf serum (PAA). Cells were routinely kept as suspension cells at 37° C. in a humidified 5% C02 atmosphere. Cells were passaged at a seeding density of 0.2×10^6/ml twice a week. Cells were seeded in black tissue culture treated 96-well plates (Perkin Elmer). Densities used for plating ranged from 2,000 to 6,000 cells per well in a total volume of 75 μl medium. After twenty four hours, drugs and/or solvents were added (25 μl) to a final volume of 100 μl. Following 72 hr of treatment plates were removed from the incubator and allowed to equilibrate to room temperature for approx 10 min. 100 μl CellTiter-Glo reagent was added to each well that was then covered (Perkin Elmer Topseal) and shaken on plate shaker for 10 min. Luminescence was measured on a HTS Topcount (Perkin Elmer). Within an experiment, the results for each treatment were the mean of 2 replicate wells.
(§4) For initial screening purposes, compounds were tested using a 9 point dilution curve (serial 1:3 dilutions). For each experiment, controls (containing no drug) and a blank incubation (containing cells read at the time of compound addition) were run in parallel. The blank value was subtracted from all control and sample values. For each sample, the mean value for cell growth (in relative light units) was expressed as a percentage of the mean value for cell growth of the control.

[2] = molecular target: Recombinant Human NF-kappaB-inducing Kinase (NIK/MAP3K14) (Homo sapiens, UniProt Q99558); assay: Inhibition of auto-phosphorylation of recombinant human NIK/MAP3K14 (AlphaScreen); format: biochemical; conditions: GST-tagged NIK/MAP3K14 0.2 nM, 25 microM ATP, 1 h at 25° C.; averaged over all measurements on all batches; read-out: Alpha-Screen IC50
Chain of Recombinant Human NF-kappaB-inducing Kinase (NIK/MAP3K14) (Q99558 whole entry): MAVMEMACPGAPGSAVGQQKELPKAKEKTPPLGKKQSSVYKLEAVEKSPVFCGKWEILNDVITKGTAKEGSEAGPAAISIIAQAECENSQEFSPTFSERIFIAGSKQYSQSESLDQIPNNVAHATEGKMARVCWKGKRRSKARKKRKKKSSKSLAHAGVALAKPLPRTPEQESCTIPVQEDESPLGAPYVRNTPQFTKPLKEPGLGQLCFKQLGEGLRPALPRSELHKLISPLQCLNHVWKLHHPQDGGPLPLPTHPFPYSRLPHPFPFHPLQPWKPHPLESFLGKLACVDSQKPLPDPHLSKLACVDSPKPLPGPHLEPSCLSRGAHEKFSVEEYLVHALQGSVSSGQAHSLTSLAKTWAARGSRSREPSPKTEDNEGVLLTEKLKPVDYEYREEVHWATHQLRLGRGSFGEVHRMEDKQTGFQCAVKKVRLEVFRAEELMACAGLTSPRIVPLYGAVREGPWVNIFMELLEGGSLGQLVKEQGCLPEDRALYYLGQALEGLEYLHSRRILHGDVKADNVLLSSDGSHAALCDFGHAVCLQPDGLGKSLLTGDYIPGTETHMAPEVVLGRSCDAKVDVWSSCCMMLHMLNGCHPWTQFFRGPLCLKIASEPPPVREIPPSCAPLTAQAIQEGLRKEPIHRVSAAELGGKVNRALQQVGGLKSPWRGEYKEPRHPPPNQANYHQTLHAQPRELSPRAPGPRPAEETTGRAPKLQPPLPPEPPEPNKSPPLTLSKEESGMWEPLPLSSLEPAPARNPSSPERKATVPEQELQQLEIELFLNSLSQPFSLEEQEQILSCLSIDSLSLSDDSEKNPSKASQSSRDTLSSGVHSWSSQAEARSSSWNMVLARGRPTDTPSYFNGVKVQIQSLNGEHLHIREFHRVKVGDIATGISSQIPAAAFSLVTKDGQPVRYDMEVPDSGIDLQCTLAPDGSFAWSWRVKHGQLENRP
Experimental: Inhibition of Auto-phosphorylation of Recombinant Human NF-kappaB-inducing Kinase (NIK/MAP3K14) Activity (AlphaScreen®)
NIK/MAP3K14 auto-phosphorylation activity was measured using the AlphaScreen® (αscreen) format (Perkin Elmer). All compounds tested were dissolved in dimethyl sulfoxide (DMSO) and further dilutions were made in assay buffer. Final DMSO concentration was 1% (v/v) in assays. Assay buffer was 50 mM Tris pH 7.5 containing 1 mM EGTA (ethylene glycol tetraacetic acid), 1 mM DTT (dithiothreitol), 0.1 mM Na3VO4, 5 mM MgCl2, 0.01% Tween® 20. Assays were carried out in 384 well Alphaplates (Perkin Elmer). Incubations consisted of compound, 25 microM Adenosine-5′-triphosphate (ATP), and 0.2 nM NIK/MAP3K14. Incubations were initiated by addition of GST-tagged NIK/MAP3K14 enzyme, carried out for 1 h at 25° C. and terminated by addition of stop buffer containing anti-phospho-IKK Ser176/180 antibody. Protein A Acceptor and Glutathione-Donor beads were added before reading using an EnVision® Multilabel Plate Reader (Perkin Elmer). Signal obtained in the wells containing blank samples was subtracted from all other wells and IC50's were determined by fitting a sigmoidal curve to % inhibition of control versus Log10 compound concentration.

[3] = tested on: L-363 cells; assay: Antiproliferative activity on L-363 cells (CellTiter-Glo); format: cell-based; conditions: Homo sapiens, 72 hr of treatment, averaged values
Experimental: as §1, §2, §3, §4

[4] = tested on: LP-1 cells; assay: Antiproliferative activity on LP-1 cells (CellTiter-Glo); format: cell-based; conditions: Homo sapiens, 72 hr of treatment, averaged values
Experimental: as §1, §2, §3, §4

[5] = tested on: P-IKKα levels in L363 cells; assay: Effect of compounds on P-IKKα levels in L363 cells; format: cell-based; conditions: Homo sapiens, L-363; L363 cells with BAFF, 2 hr treatment, P-IKKα by sandwich immuno-assay (Mesoscale); averaged values; read-out: IKKα Cellular IC50
Experimental: Effect of Compounds on P-IKKα Levels in L363 Cells
All compounds tested were dissolved in DMSO and further dilutions were made in culture medium. Final DMSO concentration was 1% (v/v) in cell assays. The human L363 cells (ATCC) were cultured in RPMI 1640 medium supplemented with GlutaMax and 10% fetal calf serum (PAA). Cells were routinely maintained at densities of 0.2×10^6 cells per ml-1×10^6 cells per ml at 37° C. in a humidified 5% C02 atmosphere. Cells were passaged twice a week splitting back to obtain the low density. Cells were seeded in 96 well plates (Nunc 167008) at 2×10^6 per ml media in a volume of 75 μl per well plus 25 μl 1 μg/ml recombinant human B-cell activating factor (BAFF/BLyS/TNFSF13B). Seeded cells were incubated at 37° C. in a humidified 5% CO2 atmosphere for 24 hr. Drugs and/or solvents were added (20 μl) to a final volume of 120 μl. Following 2 hr treatment plates were removed from the incubator and cell lysis was achieved by the addition of 30 μl 5× lysis buffer followed by shaking on a plate shaker at 4° C. for 10 min. At the end of this incubation lysed cells were centrifuged at 800×g for 20 min at 4° C. and the lysate was assessed for P-IKKα levels by sandwich immuno-assay carried out in anti-rabbit antibody coated Mesoscale plates. Within an experiment, the results for each treatment were the mean of 2 replicate wells.
For initial screening purposes, compounds were tested using an 8 point dilution curve (serial 1:3 dilutions). For each experiment, controls (containing MG132 and BAFF but no test drug) and a blank incubation (containing MG132 and BAFF and 10 μM ADS 125117, a test concentration known to give full inhibition) were run in parallel. The blank incubation value was subtracted from all control and sample values. To determine the IC50 a sigmoidal curve was fitted to the plot of % inhibition of control P-IKKα levels versus Log10 compound concentration.

Compound | EC50 [1] | IC50 [2] | EC50 [3] | EC50 [4] | IC50 [5]
CC(O)(C#Cc1cc2c(-c3nc(N)nc4ccsc34)cn(C3CN(C4CC4)C3)c2cn1)C1CC1 (single isomer, unassigned) [Compound 11] | 652 nM | 26 nM | 461 nM | 918 nM | –
CC(C)(O)C#Cc1cc2c(ccn2-c2nc(N)nc3ccsc23)cn1 [Compound 1] | 764 nM | 15 nM | 979 nM | 2220 nM | 104 nM
CC(C)(O)C#Cc1cc2c(cn1)c(CCC(C)(C)O)cn2-c1nc(N)nc2ccsc12 [Compound 2] | 1470 nM | 9 nM | 2800 nM | 10300 nM | 339 nM
CN1CCC(c2cn(-c3nc(N)nc4ccsc34)c3cc(C#CC(C)(C)O)ncc23)CC1 [Compound 3] | 540 nM | 140 nM | 258 nM | 3980 nM | –
CC(C)c1cn(-c2nc(N)nc3ccsc23)c2cc(C#CC(C)(C)O)ncc12 [Compound 4] | 1740 nM | 26 nM | 1580 nM | 3130 nM | –
COCCCn1cc(-c2nc(N)nc3ccsc23)c2cc(C#CC(C)(C)O)ncc21 [Compound 5] | 299 nM | 19 nM | 395 nM | 1680 nM | 64 nM
COCCCc1cn(-c2nc(N)nc3ccsc23)c2cc(C#CC(C)(C)O)ncc12 [Compound 6] | 580 nM | 15 nM | 1040 nM | 3430 nM | –
CC(C)(O)C#Cc1cc2c(-c3nc(N)nc4ccsc34)cn(C3COC3)c2cn1 [Compound 7] | 1060 nM | 32 nM | 696 nM | > 30000 nM | –
CC(O)(C#Cc1cc2c(-c3nc(N)nc4ccsc34)cn(C3CCN(C4CC4)CC3)c2cn1)C1CC1 (centres unmarked) [Compound 8] | 16 nM | 112 nM | 4 nM | 38 nM | –
[2H]C([2H])([2H])C(O)(C#Cc1cc2c(-c3nc(N)nc4ccsc34)cn(C3CCN(C4CC4)CC3)c2cn1)C([2H])([2H])[2H] [Compound 9] | 24 nM | 20 nM | 7 nM | 85 nM | –
[2H]C([2H])([2H])C(O)(C#Cc1cc2c(-c3nc(N)nc4ccsc34)cn(C3CN(C4CC4)C3)c2cn1)C([2H])([2H])[2H] [Compound 10] | 494 nM | 52 nM | 610 nM | 1480 nM | –
[2H]C([2H])([2H])C(O)(C#Cc1cc2c(-c3nc(N)nc4ccsc34)cn(C3CCCN(CC)C3)c2cn1)C([2H])([2H])[2H] (centres unmarked) [Compound 12] | 289 nM | 66 nM | 243 nM | 783 nM | –
[2H]C([2H])([2H])C(O)(C#Cc1cc2c(-c3nc(N)nc4ccsc34)cn(CC3CCCN3CC)c2cn1)C([2H])([2H])[2H] (centres unmarked) [Compound 13] | 60 nM | 58 nM | 36 nM | 75 nM | –
[2H]C([2H])([2H])C(O)(C#Cc1cc2c(-c3nc(N)nc4ccsc34)cn(C3CCN(CC)C3)c2cn1)C([2H])([2H])[2H] (centres unmarked) [Compound 14] | 145 nM | 38 nM | 122 nM | 655 nM | –
